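Cells were grown in 96-well plates and exposed to each compound for 48 hours at five concentrations; endpoints were interpolated linearly between bracketing concentrations, or set to the highest concentration if not reached. GI50 is the concentration that inhibits growth by half.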 Active and inactive are the calls of the source. No stated cut-off is given here; in the data, active = GI50 up to about 1.1 µM and inactive = higher.
Key:
Assay in all cases: inhibition of tumour cell growth, NCI panel, 48 h
CAKI-1 = tested on: CAKI-1
SF-539 = tested on: SF-539
COLO 205 = tested on: COLO 205
A498 = tested on: A498
MOLT-4 = tested on: MOLT-4
BT-549 = tested on: BT-549
EKVX = tested on: EKVX
NCI-H522 = tested on: NCI-H522
OVCAR-3 = tested on: OVCAR-3
NCI-H23 = tested on: NCI-H23
786-0 = tested on: 786-0
LOX IMVI = tested on: LOX IMVI
MDA-MB-435 = tested on: MDA-MB-435
SK-MEL-5 = tested on: SK-MEL-5
HCC 2998 = tested on: HCC 2998
KM12 = tested on: KM12
M14 = tested on: M14
TK-10 = tested on: TK-10
XF498 = tested on: XF498
SNB-75 = tested on: SNB-75

Compound	GI50 (CAKI-1)	GI50 (SF-539)	GI50 (COLO 205)	GI50 (A498)	GI50 (MOLT-4)	GI50 (BT-549)	GI50 (EKVX)	GI50 (NCI-H522)	GI50 (OVCAR-3)	GI50 (NCI-H23)	GI50 (786-0)	GI50 (LOX IMVI)	GI50 (MDA-MB-435)	GI50 (SK-MEL-5)	GI50 (HCC 2998)	GI50 (KM12)	GI50 (M14)	GI50 (TK-10)	GI50 (XF498)	GI50 (SNB-75)
N#CC(C#N)=C(N)/C(C#N)=C/c1ccc(O)c(O)c1	> 100 µM (inactive)	> 100 µM (inactive)	> 65.2 µM (inactive)	> 100 µM (inactive)	47.9 µM (inactive)	> 100 µM (inactive)	> 70.3 µM (inactive)	> 61.2 µM (inactive)	37.5 µM (inactive)	> 100 µM (inactive)	> 91.8 µM (inactive)	52.8 µM (inactive)	87.1 µM (inactive)	78.9 µM (inactive)	> 100 µM (inactive)	69.5 µM (inactive)	> 100 µM (inactive)	> 100 µM (inactive)	> 100 µM (inactive)	74.8 µM (inactive)
Cn1nnc2c(C(N)=O)ncn2c1=O [TEMOZOLOMIDE]	> 100 µM (inactive)	> 100 µM (inactive)	> 100 µM (inactive)		83.6 µM (inactive)	> 100 µM (inactive)	> 100 µM (inactive)	> 100 µM (inactive)	> 100 µM (inactive)	> 100 µM (inactive)	> 100 µM (inactive)	82 µM (inactive)	> 100 µM (inactive)	> 100 µM (inactive)	> 100 µM (inactive)	> 100 µM (inactive)	> 100 µM (inactive)	> 100 µM (inactive)	> 100 µM (inactive)	71 µM (inactive)
CCCCCCCCCCCCCCCCCCN(C)CC(COC)OP(=O)([O-])OCC[N+](C)(C)C (configuration not stated)	1.33 µM (inactive)	3.84 µM (inactive)	1.21 µM (inactive)	3.77 µM (inactive)	2.83 µM (inactive)	2.53 µM (inactive)	12.5 µM (inactive)	1.43 µM (inactive)	2.24 µM (inactive)	3.16 µM (inactive)	0.938 µM (active)	5.14 µM (inactive)	5.08 µM (inactive)	9.44 µM (inactive)	1.42 µM (inactive)	0.644 µM (active)	4.11 µM (inactive)	1.03 µM (active)	4.93 µM (inactive)	1.01 µM (active)
CC1C(=O)C(C)C(c2ccccc2)N(N=O)C1c1ccccc1 (configuration not stated)	184 µM (inactive)	86.5 µM (inactive)	> 553 µM (inactive)	247 µM (inactive)	> 695 µM (inactive)	> 100 µM (inactive)	> 100 µM (inactive)	> 78.3 µM (inactive)	197 µM (inactive)	> 69 µM (inactive)	126 µM (inactive)	> 533 µM (inactive)	157 µM (inactive)	> 410 µM (inactive)	> 100 µM (inactive)	> 439 µM (inactive)	283 µM (inactive)	207 µM (inactive)	19.4 µM (inactive)	34 µM (inactive)
COc1c(C=O)c2c(c(OC)c1OC)-c1ccc(OC)c(=O)cc1[C@@H](NC(C)=O)CC2	0.703 µM (active)	0.0237 µM (active)	0.0239 µM (active)	0.347 µM (active)	< 0.01 µM (active)	21.1 µM (inactive)	47.9 µM (inactive)	0.0123 µM (active)	0.0327 µM (active)	0.034 µM (active)	0.132 µM (active)	0.015 µM (active)	< 0.01 µM (active)	0.0241 µM (active)	0.0637 µM (active)	0.0134 µM (active)	0.051 µM (active)	3.83 µM (inactive)	0.0773 µM (active)	0.0254 µM (active)
CCN(C(C)=N)c1ccccc1	95.1 µM (inactive)	> 100 µM (inactive)	> 100 µM (inactive)	37.5 µM (inactive)	72.6 µM (inactive)		52.8 µM (inactive)	50.2 µM (inactive)	> 100 µM (inactive)	54.8 µM (inactive)	> 100 µM (inactive)	> 100 µM (inactive)		35.1 µM (inactive)	> 100 µM (inactive)	> 100 µM (inactive)	> 100 µM (inactive)	> 100 µM (inactive)	> 100 µM (inactive)	37.5 µM (inactive)

From ChEMBL document CHEMBL1201862, “PubChem BioAssay data set” (2004)
